Source: patent US7781565B2 (priority 2006, dated 2010)
“Also recorded” adds a separate entry of the source.

What follows are substances tested on NCI-60 cell lines.
Assay type: cell-based, human
PVHSAGG was tested, and the “Cell Line with which the peptide (and its tripeptide motif) is associated” value (“Cell Line with which the peptide” below) was “H460-Lung”. ELGLRVP was tested, and the “Cell Line (NCI-60 cell line the peptide and its motif are associated with)” value was “OVCAR-8 Ovarian”. With GVSGTVS the “Cell Line (NCI-60 cell line the peptide and its motif are associated with)” value was “IGROV1 Ovarian”. LAQGRLA was tested, and the “Cell Line (NCI-60 cell line the peptide is associated with)” value was “HT-29 Colon”. FAASGVL was tested, and the “Cell Line (NCI-60 cell line the peptide and its motif are associated with)” value was “UACC 257 Melanoma”. In the case of KGRVSAG, the “Cell Line (NCI-60 cell line the peptide is associated with)” value was “SNB-19 CNS; also recorded: SF-539 CNS”. In the case of SNARGPR, the “Cell Line with which the peptide” value was “K-562-Leukemia”. In the case of RFYHLRS, the “Cell Line with which the peptide” value was “A549-Lung”. With GGSALFG the “Cell Line (NCI-60 cell line the peptide is associated with)” value was “HT-29 Colon”. With GVLPVVT the “Cell Line (NCI-60 cell line the peptide is associated with)” value was “HCT-15 Colon”. With DIALVSP the “Cell Line with which the peptide” value was “A549-Lung”. With GGLPVQM the “Cell Line (NCI-60 cell line the peptide and its motif are associated with)” value was “PC3 Prostate”. WSGGLNV was tested, and the “Cell Line with which the peptide” value was “H322-Lung”. With GRLRASL the “Cell Line (NCI-60 cell line the peptide is associated with)” value was “SF-295 CNS”. RVSNEAL was tested, and the “Cell Line (NCI-60 cell line the peptide and its motif are associated with)” value was “SK-OV-3-3 Ovarian”. For VGLGHWP, the “Cell Line with which the peptide” value was “Hop-62-Lung”. For TEGSVTV, the “Cell Line with which the peptide” value was “HL-60-Leukemia”. For FAQRRVS, the “Cell Line the peptide is associated with (peptide recovered from phage library selection on this NCI-60 cell line)” value was “SN12C Renal”. In the case of RRLSYRE, the “Cell Line (NCI-60 cell line the peptide and its motif are associated with)” value was “OVCAR-8 Ovarian”. For SAAGLAR, the “Cell Line (NCI-60 cell line the peptide and its motif are associated with)” value was “SK-OV-3-3 Ovarian”. With SWAGVRF the “Cell Line (NCI-60 cell line the peptide and its motif are associated with)” value was “OVCAR-5 Ovarian”. In the case of LGGLGLY, the “Cell Line (NCI-60 cell line the peptide and its motif are associated with)” value was “DU-145 Prostate”. With DVPGVRF the “Cell Line with which the peptide” value was “EKVX-Lung”. IAAVWRS was tested, and the “Cell Line (NCI-60 cell line the peptide is associated with)” value was “HCT-116 Colon”. For IAGLAVV, the “Cell Line (NCI-60 cell line the peptide is associated with)” value was “SNB-75 CNS”. LSMLRSA was tested, and the “Cell Line with which the peptide” value was “H322-Lung”. With CMLRSAT the “Cell Line (NCI-60 cell line the peptide and its motif are associated with)” value was “SK-MEL-2 Melanoma”. In the case of LRGSHVA, the “Cell Line the peptide is associated with (peptide recovered from phage library selection on this NCI-60 cell line)” value was “ACHN Renal”. For AGLGLLD, the “Cell Line (NCI-60 cell line the peptide and its motif are associated with)” value was “SK-OV-3-3 Ovarian”. In the case of AGGWRGR, the “Cell Line (NCI-60 cell line the peptide is associated with)” value was “SF-268 CNS”. In the case of TREGGLD, the “Cell Line (NCI-60 cell line the peptide is associated with)” value was “KM-12C Colon”. In the case of RVEAAVP, the “Cell Line (NCI-60 cell line the peptide and its motif are associated with)” value was “SK-OV-3-3 Ovarian”. With LGLRGGA the “Cell Line (NCI-60 cell line the peptide is associated with)” value was “SF-268 CNS”. With SSGPRSS the “Cell Line with which the peptide” value was “Hop-62-Lung”. With AVSLAWQ the “Cell Line the peptide is associated with (peptide recovered from phage library selection on this NCI-60 cell line)” value was “T-47D Breast”. AVEGRGS was tested, and the “Cell Line (NCI-60 cell line the peptide is associated with)” value was “HCT-116 Colon”. For HAAHGLV, the “Cell Line with which the peptide” value was “Hop-92-Lung”. FPARGED was tested, and the “Cell Line the peptide is associated with (peptide recovered from phage library selection on this NCI-60 cell line)” value was “A498 Renal”. With AGDRGVA the “Cell Line (NCI-60 cell line the peptide and its motif are associated with)” value was “DU-145 Prostate”. GRVHLMP was tested, and the “Cell Line with which the peptide” value was “Hop-92-Lung”. With SRLSYRS the “Cell Line with which the peptide” value was “A549-Lung”. For GDATLVS, the “Cell Line (NCI-60 cell line the peptide and its motif are associated with)” value was 786-0 Renal. For DLLRYLA, the “Cell Line with which the peptide” value was “H322-Lung”. YGSVALR was tested, and the “Cell Line (NCI-60 cell line the peptide is associated with)” value was “H522-Lung”. With SGVRLTG the “Cell Line (NCI-60 cell line the peptide is associated with)” value was “HT-29 Colon”. In the case of RKPGGGR, the “Cell Line (NCI-60 cell line the peptide is associated with)” value was “HT-29 Colon”. With IGGREIT the “Cell Line with which the peptide” value was “H23-Lung”. For GVRRSLL, the “Cell Line (NCI-60 cell line the peptide is associated with)” value was “SNB-75 CNS”. In the case of HAELVSL, the “Cell Line (NCI-60 cell line the peptide is associated with)” value was “KM-12C Colon”. In the case of GSVSAGA, the “Cell Line (NCI-60 cell line the peptide is associated with)” value was “HT-29 Colon”. In the case of SSRMGLV, the “Cell Line with which the peptide” value was “SR Leukemia”. PTGAGLL was tested, and the “Cell Line (NCI-60 cell line the peptide and its motif are associated with)” value was “IGROV1 Ovarian”. With DELGSVQ the “Cell Line the peptide is associated with (peptide recovered from phage library selection on this NCI-60 cell line)” value was “TK-10 Renal”. RVMRGSL was tested, and the “Cell Line the peptide is associated with (peptide recovered from phage library selection on this NCI-60 cell line)” value was “MCF-7 Breast”. With CPGSGII the “Cell Line (NCI-60 cell line the peptide is associated with)” value was “LOX-IMVI Melanoma”. With VGPSVHL the “Cell Line (NCI-60 cell line the peptide and its motif are associated with)” value was 786-0 Renal. In the case of SPGVSGR, the “Cell Line (NCI-60 cell line the peptide is associated with)” value was “SW620-Colon”. In the case of WGSSAVK, the “Cell Line (NCI-60 cell line the peptide and its motif are associated with)” value was “IGROV1 Ovarian”. AGGTDRT was tested, and the “Cell Line the peptide is associated with (peptide recovered from phage library selection on this NCI-60 cell line)” value was “MDA-MB-231 Breast”. In the case of GTPAVSY, the “Cell Line the peptide is associated with (peptide recovered from phage library selection on this NCI-60 cell line)” value was “NCI/ADR-RES Breast”. For RVGRLGG, the “Cell Line with which the peptide” value was “A549-Lung”. ADGRLRY was tested, and the “Cell Line (NCI-60 cell line the peptide is associated with)” value was “KM-12C Colon”. For GVRSITL, the “Cell Line the peptide is associated with (peptide recovered from phage library selection on this NCI-60 cell line)” value was “ACHN Renal”. With TICLGLG the “Cell Line the peptide is associated with (peptide recovered from phage library selection on this NCI-60 cell line)” value was “CAIK-1 Renal”. VSSTARG was tested, and the “Cell Line (NCI-60 cell line the peptide is associated with)” value was “MALME-3M Melanoma”. In the case of IFGAGLR, the “Cell Line (NCI-60 cell line the peptide is associated with)” value was “LOX-IMVI Melanoma”. In the case of GAVTSAD, the “Cell Line (NCI-60 cell line the peptide and its motif are associated with)” value was “SK-MEL-2 Melanoma”. For APGRLGP, the “Cell Line (NCI-60 cell line the peptide and its motif are associated with)” value was “OVCAR-4 Ovarian”. With DAGSDRR the “Cell Line with which the peptide” value was “EKVX-Lung”. For EAGPRGV, the “Cell Line the peptide is associated with (peptide recovered from phage library selection on this NCI-60 cell line)” value was “BT-549 Breast”. ANASGVR was tested, and the “Cell Line (NCI-60 cell line the peptide and its motif are associated with)” value was “M14 Melanoma”. For RGRVLLP, the “Cell Line (NCI-60 cell line the peptide and its motif are associated with)” value was “M14 Melanoma”. For SYGLVLP, the “Cell Line with which the peptide” value was “Hop-92-Lung”. In the case of FHVAGGS, the “Cell Line with which the peptide” value was “SR Leukemia”. GRIRLSF was tested, and the “Cell Line the peptide is associated with (peptide recovered from phage library selection on this NCI-60 cell line)” value was “RXF393 Renal”. EVASGLV was tested, and the “Cell Line (NCI-60 cell line the peptide and its motif are associated with)” value was “SK-MEL-2 Melanoma”. For TLGVLVT, the “Cell Line the peptide is associated with (peptide recovered from phage library selection on this NCI-60 cell line)” value was “NCI/ADR-RES Breast”. VGLRDWG was tested, and the “Cell Line (NCI-60 cell line the peptide is associated with)” value was “SW620-Colon”. In the case of PDRASDG, the “Cell Line with which the peptide” value was “Hop-62-Lung”. With GYLGRLP the “Cell Line the peptide is associated with (peptide recovered from phage library selection on this NCI-60 cell line)” value was “NCI/ADR-RES Breast”. With AGLEDLG the “Cell Line the peptide is associated with (peptide recovered from phage library selection on this NCI-60 cell line)” value was “RXF393 Renal”. In the case of RGVSGRL, the “Cell Line (NCI-60 cell line the peptide and its motif are associated with)” value was “SK-MEL-28 Melanoma”. With VGAVYFL the “Cell Line with which the peptide” value was “H322-Lung”. In the case of GSLGVSL, the “Cell Line with which the peptide” value was “H226-Lung”. In the case of EGLVVFE, the “Cell Line (NCI-60 cell line the peptide is associated with)” value was “SNB-19 CNS; also recorded: SF-539 CNS”. With RSSIDVG the “Cell Line the peptide is associated with (peptide recovered from phage library selection on this NCI-60 cell line)” value was “NCI/ADR-RES Breast”. For GLVGRRA, the “Cell Line (NCI-60 cell line the peptide is associated with)” value was “COLO-205-Colon”. In the case of VVGGRRT, the “Cell Line the peptide is associated with (peptide recovered from phage library selection on this NCI-60 cell line)” value was “HS 578 T Breast”. With SQFGPSF the “Cell Line (NCI-60 cell line the peptide and its motif are associated with)” value was “SK-OV-3-3 Ovarian”. In the case of LKVRGVL, the “Cell Line (NCI-60 cell line the peptide is associated with)” value was “HT-29 Colon”. In the case of GGLRGVR, the “Cell Line with which the peptide” value was “A549-Lung”. For RKEALRV, the “Cell Line the peptide is associated with (peptide recovered from phage library selection on this NCI-60 cell line)” value was “CAIK-1 Renal”. With WGRLEST the “Cell Line the peptide is associated with (peptide recovered from phage library selection on this NCI-60 cell line)” value was “BT-549 Breast”. For LMGRASG, the “Cell Line with which the peptide” value was “SR Leukemia”. For ARGNVRF, the “Cell Line the peptide is associated with (peptide recovered from phage library selection on this NCI-60 cell line)” value was “MDA-MB-231 Breast”. In the case of GARAVAP, the “Cell Line the peptide is associated with (peptide recovered from phage library selection on this NCI-60 cell line)” value was “HS 578 T Breast”.
